Where a SMILES comes first, the peptide text is derived from it. Bridges are numbered along the chain shown (N, C = ends).
Tests used:
[1] = tested on: SPF-Ratten ohne zentrale Reflexe ("pithed rats"); assay: In vivo blood pressure in anaesthetised pithed SPF rats under angiotensin II infusion; conditions: Angiotensin II 0,15 µg/kg/min, 1 mg/kg i.v. after bolus of 10 µg/kg ANF
Method: (§1) Für die in vivo Versuche wurden 20 Wochen alte spontanhypertensive Ratten (SHR) oder normotensive pathogen-freie (SPF) Ratten verwendet. In wache SHR wurde 2.5 µg/kg/min ANF infundiert, was den Blutdruck um 45 mm Hg senkte. Eine anschliessende Bolusgabe von 1 mg/kg ANF-Antagonist erhöhte den Blutduck wiederum auf den Ausgangswert von 220 mm Hg. Anästhesierten SPF-Ratten ohne zentrale Reflexe ("pithed rats") wurde Angiotensin II (0,15 µg/kg/min) infundiert, um den Blutdruck auf 100-110 mm Hg anzuheben. Dann wurde ein Bolus von 10 µg/kg ANF gegeben. was den Blutdruck um 20 mm Hg senkte. […] Diese Versuche zeigen, dass der Blutdruckanstieg unter dem ANF-Antagonisten nicht auf eine Aktivierung von symphatischen Reflexen, sondern auf die Wirkung eines ANF-Antagonisten zurückzuführen ist.

[2] = target: ANF Rezeptor (Membranpräparation von Rindernebennieren); assay: Binding test: displacement of radiolabelled ANF from its receptor (membrane preparation of bovine adrenal glands); design: species or system Rind; conditions: inhibition of ¹²⁵I-ANF (18,2 pM) binding, 24 h at 4°C; read-out: IC₅₀
Method: In einem Bindungstest nach Bürgisser et al. [Biochem. Biophys. Res. Comm. 133, 1201 (1985)] wurde die Verdrängung von radioaktiv-markiertem ANF von dessen Rezeptor durch den ANF-Antagonisten gemessen. Als Rezeptorpräparation wurde eine Membranpräparation von Rindernebennieren verwendet. Zu 100 µl dieser Präparation in 50 mM Tris/HCl, 500 mM MgCl₂, 1 mM EDTA. 0,5% Rinderserumalbumin und 1 mM o-Phenanthrolin, pH 7,6, wurden ¹²⁵I-ANF (20'000 cpm. 18,2 pM) in 145 µl dieses Puffers und der Ligand in 5 µl Dimethylsulfoxid gegeben. Diese Mischung wurde 24 Stunden bei 4°C inkubiert und gebundenes von freiem ANF durch schnelle Filtration über Whatman GF/C Glasfaserfilter abgetrennt. Nach dreimaligem Waschen der Filter mit obigem Puffer (3 x 4 ml) wurden die Filter zerschnitten und deren Radioaktivität im Gamma-Zähler gemessen. Die Inhibition der Bindung wurde quantitativ mit der IC₅₀ erfasst, worunter diejenige Konzentration an entsprechendem Liganden zu verstehen ist, bei der die Bindung von ¹²⁵I-ANF halbmaximal gehemmt wird. Tabelle

[3] = tested on: spontanhypertensive Ratten (SHR); assay: In vivo blood pressure in conscious SHR under ANF infusion; conditions: bolus 1 mg/kg after ANF infusion 2.5 µg/kg/min
Method: as §1

Structure (SMILES) | Blutdruck nach intravenöser Gabe [1] | IC50 [2] [nM] | Blutdruck nach Bolusgabe (erhöht auf den Ausgangswert) [3] [mm Hg]
CC[C@H](C)[C@@H]1NC(=O)[C@H](Cc2ccccc2)NC(=O)CNC(=O)C[C@@H](C(=O)N[C@H](C(=O)N[C@@H](Cc2ccccc2)C(=O)NCC(=O)N[C@@H](Cc2c[nH]cn2)C(=O)N[C@@H](Cc2ccc(O)cc2)C(=O)N[C@@H](CO)C(=O)NCC(=O)N[C@@H](CC(=O)O)C(=O)N[C@@H](Cc2ccccc2)C(=O)O)[C@@H](C)CC)NC(=O)[C@H](CC(N)=O)NC(=O)CNC(=O)[C@H](Cc2c[nH]c3ccccc23)NC(=O)CNC1=O [ANF-Antagonist] (GFIGWGNDIFGHYSGDF-OH; lactam N-8; C-terminus assumed) | erhöhte den Blutdruck wiederum auf den Ausgangswert | 860 | 220
CC[C@H](C)[C@@H]1NC(=O)[C@H](Cc2ccccc2)NC(=O)CNC(=O)C[C@@H](C(=O)N[C@H](C(=O)N[C@@H](Cc2ccccc2)C(=O)NCC(=O)N[C@@H](Cc2c[nH]cn2)C(=O)N[C@@H](Cc2ccc(O)cc2)C(=O)N[C@@H](CO)C(=O)NCC(=O)N[C@@H](CC(=O)OC)C(=O)N[C@@H](Cc2ccccc2)C(=O)OC)[C@@H](C)CC)NC(=O)[C@H](CC(N)=O)NC(=O)CNC(=O)[C@H](Cc2c[nH]c3ccccc23)NC(=O)CNC1=O [Dimethylester] (GFIGWGNDIFGHYSGD(OMe)F-OMe; lactam N-8) |  | 2500 | 
